Measured values taken from article PMC9598282 (Antibiotics, 2022).

Assays:
Experiment in all cases: microbe, parasite or virus in culture
E. coli ATCC 25922 = assay type: cell-based, Escherichia coli; set-up: key to FIC index antibiotic + GCol / FIC index antibiotic + GPMB: sum of FICs; ≤0.5 synergy, 0.5–4 additivity, >4 antagonism; details: for MIC: Escherichia coli, ATCC25922, 18 h, read-out: MIC alone; for MIC / MIC alone: agent alone, one value per checkerboard plate
Protocol: (§1) The adjuvant properties of the guanidinylated polymyxins were evaluated using the checkerboard assay as previously described. The bacterial solution was prepared as described in the antimicrobial susceptibility assay. The antibiotic of interest and the adjuvant were serially diluted two-fold along the x- and y-axis on a 96-well plate, respectively, resulting in varying concentrations of both agents in each well. Equal volumes of bacterial solution were added to the designated wells. The well consisting of bacterial solution served as the positive control, while the wells containing only media served as the negative control. The plate was then incubated at 37 °C for 18 h. After incubation, an Emax Plus microplate reader (Molecular Devices, Union City, CA, USA) was used to measure the OD at a wavelength of 590 nm to confirm the turbidity. The fractional inhibitory concentration (FIC) index was then determined to establish the relationship between the antibiotic and adjuvant. The FIC index corresponds to the sum of the FICs of the antibiotic and adjuvant. The FIC of each agent is calculated by dividing its MIC when it is used in combination by its MIC when used alone. FIC indices ≤0.5, 0.5 < x ≤ 4 and >4 indicate synergy, additivity and antagonism, respectively.

P. aeruginosa PAO1 = assay type: cell-based, Pseudomonas aeruginosa; details: for MIC: Pseudomonas aeruginosa, PAO1, 18 h, read-out: MIC alone
Protocol: as §1

A. baumannii ATCC 17978 = assay type: cell-based, Acinetobacter baumannii; details: for MIC: Acinetobacter baumannii, ATCC17978, 18 h, read-out: MIC alone; for MIC / MIC alone: agent alone, one value per checkerboard plate
Protocol: as §1

[1] = agent alone, one value per checkerboard plate

Compound	Absolute MIC of antibiotic at 2 μg/mL GCol (E. coli ATCC 25922)	Absolute MIC of antibiotic at 2 μg/mL GPMB (E. coli ATCC 25922)	FIC index antibiotic + GCol (E. coli ATCC 25922)	FIC index antibiotic + GPMB (E. coli ATCC 25922)	MIC (E. coli ATCC 25922)	Fold-potentiation of antibiotic (E. coli ATCC 25922; at 2 μg/mL GCol)	Fold-potentiation of antibiotic (E. coli ATCC 25922; at 2 μg/mL GPMB)	Absolute MIC of antibiotic at 4 μg/mL GCol (P. aeruginosa PAO1)	Absolute MIC of antibiotic at 4 μg/mL GPMB (P. aeruginosa PAO1)	MIC (P. aeruginosa PAO1; [1])	Fold-potentiation of antibiotic (P. aeruginosa PAO1; at 4 μg/mL GCol)	Fold-potentiation of antibiotic (P. aeruginosa PAO1; at 4 μg/mL GPMB)	Absolute MIC of antibiotic at 2 μg/mL GCol (A. baumannii ATCC 17978)	Absolute MIC of antibiotic at 2 μg/mL GPMB (A. baumannii ATCC 17978)	FIC index antibiotic + GPMB (A. baumannii ATCC 17978)	MIC (A. baumannii ATCC 17978)	Fold-potentiation of antibiotic (A. baumannii ATCC 17978; at 2 μg/mL GCol)	Fold-potentiation of antibiotic (A. baumannii ATCC 17978; at 2 μg/mL GPMB)	also measured
O=C(N[C@H](CO)[C@H](O)c1ccc([N+](=O)[O-])cc1)C(Cl)Cl [Chloramphenicol]	0.5 µg/mL	0.5 µg/mL	0.375	0.5	2 µg/mL	4	4	4 µg/mL	2 µg/mL	32 µg/mL	8	16	64 µg/mL	32 µg/mL	0.563	64 µg/mL	1	2	
CCC[C@@H]1C[C@@H](C(=O)N[C@@H]([C@H]2O[C@H](SC)[C@H](O)[C@@H](O)[C@H]2O)[C@H](C)Cl)N(C)C1 [Clindamycin]	4 µg/mL	8 µg/mL	0.125	0.313	64 µg/mL	16	16	8 µg/mL	8 µg/mL	1020 µg/mL	128	256	512 µg/mL	64 µg/mL	0.375	1020 µg/mL	2	16	MIC alone (E. coli ATCC 25922): 128 µg/mL; FIC index antibiotic + GPMB (P. aeruginosa PAO1): 0.254; MIC alone (P. aeruginosa PAO1; [1]): 2048 µg/mL
C[C@H]1c2cccc(O)c2C(=O)C2=C(O)[C@]3(O)C(=O)C(C(N)=O)=C(O)[C@@H](N(C)C)[C@@H]3[C@@H](O)[C@@H]21 [Doxycycline]								1 µg/mL	0.5 µg/mL	8 µg/mL			0.125 µg/mL	0.063 µg/mL		0.125 µg/mL			MIC alone (A. baumannii ATCC 17978): 0.063 µg/mL
C[C@H]1COc2c(N3CCN(C)CC3)c(F)cc3c(=O)c(C(=O)O)cn1c23 [Levofloxacin]	0.008 µg/mL	0.032 µg/mL	0.531	0.563		2	2	0.0625 µg/mL	0.03125 µg/mL	0.5 µg/mL	8	8	0.125 µg/mL	0.063 µg/mL	1	0.125 µg/mL	1	1	FIC index antibiotic + GPMB (P. aeruginosa PAO1): 0.375; MIC alone (A. baumannii ATCC 17978): 0.063 µg/mL
CC(=O)NC[C@H]1CN(c2ccc(N3CCOCC3)c(F)c2)C(=O)O1 [Linezolid]	16 µg/mL	8 µg/mL	0.25	0.25	128 µg/mL	8	16	128 µg/mL	32 µg/mL	1020 µg/mL	8	32	128 µg/mL	64 µg/mL	0.375	256 µg/mL	2	4	
CN(C)c1ccc(O)c2c1C[C@H]1C[C@H]3[C@H](N(C)C)C(O)=C(C(N)=O)C(=O)[C@@]3(O)C(O)=C1C2=O [Minocycline]	0.25 µg/mL	0.125 µg/mL	0.281	0.25	1 µg/mL	4	8	0.5 µg/mL	0.5 µg/mL	16 µg/mL	32	32	0.125 µg/mL	0.063 µg/mL	0.5	0.125 µg/mL	1	4	MIC alone (A. baumannii ATCC 17978): 0.25 µg/mL
COc1c(N2C[C@@H]3CCCN[C@@H]3C2)c(F)cc2c(=O)c(C(=O)O)cn(C3CC3)c12 [Moxifloxacin]	0.008 µg/mL	0.004 µg/mL			0.016 µg/mL					1 µg/mL			0.063 µg/mL	0.063 µg/mL		0.063 µg/mL			
CO[C@@H]1[C@@H](OC(N)=O)[C@@H](O)[C@H](Oc2ccc3c(O)c(NC(=O)c4ccc(O)c(CC=C(C)C)c4)c(=O)oc3c2C)OC1(C)C [Novobiocin]	0.125 µg/mL	0.25 µg/mL	0.02	0.012	128 µg/mL	1024	256	128 µg/mL	4 µg/mL	1020 µg/mL	8	256	0.5 µg/mL	0.063 µg/mL	0.07	8 µg/mL	16	256	MIC alone (E. coli ATCC 25922): 64 µg/mL
CCN1CCN(C(=O)N[C@@H](C(=O)N[C@@H]2C(=O)N3[C@@H]2SC(C)(C)[C@@H]3C(=O)O)c2ccccc2)C(=O)C1=O [Piperacillin]	0.125 µg/mL	0.063 µg/mL	0.188	0.281	2 µg/mL	16	32	1 µg/mL	1 µg/mL	4 µg/mL	4	4	64 µg/mL	64 µg/mL	0.375	64 µg/mL	1	1	
C=C[C@]1(C)C[C@@H](OC(=O)CO)[C@]2(C)[C@H](C)CC[C@]3(CCC(=O)[C@H]32)[C@@H](C)[C@@H]1O [Pleuromutilin]	0.25 µg/mL	0.125 µg/mL	0.066	0.035	64 µg/mL	256	512	256 µg/mL	32 µg/mL	1020 µg/mL	4	32	32 µg/mL	2 µg/mL	0.129	512 µg/mL	16	256	
NC[C@H]1O[C@H](O[C@H]2[C@H](O)[C@@H](O[C@H]3O[C@H](CO)[C@@H](O)[C@H](N)[C@H]3O)[C@H](N)C[C@@H]2N)[C@H](N)C[C@@H]1O [Tobramycin]	1 µg/mL	1 µg/mL	0.516	1.031	2 µg/mL	2	1	2 µg/mL	2 µg/mL	2 µg/mL	1	1	1 µg/mL	2 µg/mL	1	1 µg/mL	1	1	FIC index antibiotic + GPMB (P. aeruginosa PAO1): 1.016
